# Measurements: patent US10717766B2, “Antimicrobial peptides and uses thereof” (TECHNION RESEARCH & DEVELOPMENT FOUNDATION LIMITED, priority 2016, dated 2020)
# Like-named read-outs stand apart in the source and are kept apart here.
# Assays:
# Micrococcus luteus = assay: diameter of the growth inhibition of Micrococcus luteus cells; format: cell-based; details: for growth inhibition of Micrococcus luteus: FIG. 2A; for diameter of the growth inhibition of Micrococcus luteus: various concentrations
# Source text: The anti-bacterial activity of LFKFFK peptide (SEQ ID NO: 1), KLFKFFK peptide (SEQ ID NO: 3) and control peptides with a hydrophobic/cationic amino-acid composition, IIKVIK (SEQ ID NO: 10) and IIKIIK (SEQ ID NO: 11), was examined by determining the diameter of the growth inhibition of Micrococcus luteus cells.
# [1] = system: Staphylococcus epidermidis ATCC 12228; assay: antibacterial activity (MIC) of fragments against Staphylococcus epidermidis ATCC 12228; format: cell-based; details: FIG. 5
# Description: (§1) Extended fragments of the LFKFFK (SEQ ID NO: 1) sequence were derived from Staphylococcus aureus (PSMα3 derivatives) in order to determine the minimum peptide length critical for the antibacterial activity. […] Therefore, the antibacterial activity of its fragments comprising SEQ ID NO: 1, as listed in Table 1, were examined on the growth of Staphylococcus epidermidis ATCC 12228 cells, Staphylococcus hominis, and Lactobacillus casei after 24 hours from treatment with 0.5 mM peptide at 37° C. under agitation compared to control (bacterial growth w/o peptide). Lactobacillus casei are probiotic bacteria. Therefore, the peptides listed in Table 1 were also tested against bacteria of the human flora.
# bacteria = details: native full-length 22-residue peptide, cited from earlier work
# Staphylococcus hominis [2] = assay: growth of Staphylococcus hominis after treatment with 0.5 mM peptide; format: cell-based; details: 24 hours, 37° C. under agitation, FIG. 6
# Description: as §1
# Staphylococcus hominis [3] = assay: minimal inhibition concentration (MIC) against Staphylococcus hominis; format: cell-based; details: O.D600 nm after 24 hours incubation at 37° C. with agitation, FIG. 4
# Description: N-terminal acetylation of peptides is known to enhance fibril formation. Therefore, the bacterial growth of Staphylococcus hominis was tested by capped peptides of SEQ ID NO: 1 and 2. […] The lowest concentration at which no growth was observed is determined as the MIC. The experiment was performed in triplicates.
substance,measurement,setting,value
KLFKFFK (listed as Staphylococcus aureus),growth inhibition of Micrococcus luteus,Micrococcus luteus,inhibit the growth
same,toxicity to Micrococcus Luteus compared with LFKFFK,Micrococcus luteus; FIG. 2B,even more toxic
same,diameter of the growth inhibition of Micrococcus luteus,Micrococcus luteus; FIG. 2B,dose-dependent effect
Ac-KLFKFFKDLL-NH2 (listed as Staphylococcus aureus) [compound 5],anti-bacterial activity (MIC) against Staphylococcus epidermidis ATCC 12228,[1],better anti-bacterial activity
MEFVAKLFKFFKDLLGKFLGNN [PSMalpha3],antibacterial activity,bacteria,lacks antibacterial activity
same,antibacterial activity,bacteria; listed as SEQ ID NO: 2,lack an antibacterial activity
Ac-KLFKFFKD-NH2 (listed as Staphylococcus aureus) [compound 3],antibacterial effect against S. hominis (growth compared to control w/o peptide),Staphylococcus hominis [2],partially active
LFKFFK (listed as Staphylococcus aureus) [fragment of PSMalpha3],growth inhibition of Micrococcus luteus,Micrococcus luteus,inhibit the growth
same,diameter of the growth inhibition of Micrococcus luteus,Micrococcus luteus; FIG. 2B,dose-dependent effect
Ac-LFKFFK-NH2 (listed as Staphylococcus aureus) [compound 1],antibacterial effect against S. hominis (growth compared to control w/o peptide),Staphylococcus hominis [2],partially active
Ac-VAKLFKFFKDLLGKFL-NH2 (listed as Staphylococcus aureus) [peptide 8],anti-bacterial activity (MIC) against Staphylococcus epidermidis ATCC 12228,[1],fails to exhibit any antibacterial activity
Ac-KLFKFFKDLLG-NH2 (listed as Staphylococcus aureus) [compound 6],anti-bacterial activity (MIC) against Staphylococcus epidermidis ATCC 12228,[1],better anti-bacterial activity
Ac-KLFKFFK-NH2 (listed as Staphylococcus aureus) [compound 2],MIC,Staphylococcus hominis [3],15
same,antibacterial effect against S. hominis (growth compared to control w/o peptide),Staphylococcus hominis [2],partially active
